Values after ≈ are worked out from the molar mass of the structure shown. Non-standard residues stand in square brackets, D forms with d. Residues, ends and D or L forms follow the SMILES beside them. ξ: configuration not given here. ξAhp(2) = CCCCCC(N)C(=O)O
Key:
[1] = system: E. faecalis 29212; format: cell-based, Enterococcus faecalis
Procedure: (§1) The MIC values of the nano‐short peptides were determined according to standard protocols.^[ [63] ^] Bacterial strains were revived from cryopreservation and cultured in Mueller–Hinton broth (MHB) to logarithmic growth phase, then diluted to a final density of 0.5–1 × 10⁶ CFU mL^−1. Serial dilutions of the nano‐short peptides were prepared in 0.2% bovine serum albumin (BSA) using a 96‐well plate format. Equal volumes of peptide solutions and bacterial suspensions were combined and incubated at 37 °C for 20–22 h. Bacterial growth was assessed by measuring absorbance at 492 nm, with MHB alone (negative control) and untreated bacterial suspension (positive control) included for reference.

[2] = system: P. aeruginosa 27853; format: cell-based, Pseudomonas aeruginosa
Procedure: as §1

[3] = system: P. aeruginosa PAO1; format: cell-based, Pseudomonas aeruginosa
Procedure: as §1

[4] = system: MRSA 43300; format: cell-based, Methicillin-Resistant Staphylococcus aureus
Procedure: as §1

[5] = system: S. aureus ATCC 29213; assay: Cell wall permeability, NPN; format: cell-based, Staphylococcus aureus; conditions: n = 3
Procedure: The NPN fluorescent probe was used to assess the permeability of cell wall.^[ [64] ^] A logarithmic phase culture of S. aureus ATCC 29213 bacterial solution was diluted to OD600 = 0.2 in a 5 × 10^−3 M HEPES buffer (pH = 7.4 with 5 × 10^−3 M glucose). Following the addition of NPN (final concentration: 10 × 10^−6 M), the mixture was incubated for 30 min in the dark. Subsequently, the bacterial suspension was mixed with an equal volume of nano‐short peptides solution at different concentrations. […] Fluorescence intensity was measured (excitation λ = 350 nm, emission λ = 420 nm) using a microplate reader. The percentage of outer membrane permeability was calculated as: Permeability% = [(F treated – F negative control)/(F positive control – F negative control)] × 100%.

[6] = system: S. aureus ATCC 29213; assay: ROS generation, DCFH-DA; format: cell-based, Staphylococcus aureus; conditions: 16 × 10^−6 M, S. aureus ATCC 29213, DCFH-DA, 1 h; n = 3
Procedure: (§2) ROS accumulation levels were assessed by the fluorescent probe DCFH‐DA.^[ [63] ^] Logarithmic growth stage E. coli ATCC 25922 and S. aureus ATCC 29213 bacterial solutions were diluted to OD600 = 0.4 in PBS (pH = 7.4, 10 × 10^−3 M), followed by incubation with DCFH‐DA final concentration of 10 × 10^−6 M) for 30 min at 37 °C. Subsequently, the bacterial suspensions were then mixed with different concentrations of nano‐short peptides dilutions in equal volumes in a 96‐well plate and continued to incubate for 1 h (37 °C). Finally, the fluorescence intensity was measured using a microplate reader (excitation λ = 488 nm, emission λ = 525 nm).

[7] = system: E. coli ATCC 25922; assay: Serum tolerance assay (MIC after incubation with serum); format: cell-based, Escherichia coli; conditions: 4 h of incubation with various serum concentrations
Procedure: The serum stability of nano‐short peptides was evaluated by incubating peptide solutions with fetal bovine serum (FBS), which was at concentrations of 25%, 50%, and 100% (diluted in 0.2% BSA solution). Following 4 h of incubation, the antimicrobial activity was determined by measuring the MIC against the test strains.

[8] = system: S. epidermidis 12228; format: cell-based, Staphylococcus epidermidis
Procedure: as §1

[9] = system: E. coli ATCC 25922; assay: Respiratory chain dehydrogenase activity, RT reduction; format: cell-based, Escherichia coli; conditions: 16 × 10^−6 M, E. coli ATCC 25922, 1.5 h, 37 °C; n = 3
Procedure: (§3) The inhibitory effects of nano‐short peptides on RCD activity in bacteria were evaluated using an RT reduction assay.^[ [58] ^] Logarithmic growth stage E. coli ATCC 25922 and S. aureus ATCC 29213 bacterial solutions were diluted to OD600 = 0.4 in MHB liquid medium. A mixed solution was prepared by combining RT (1 mg mL^−1), glucose (100 × 10^−3 M), and Tris‐HCl buffer (50 × 10^−3 M, pH 8.6) in equal volumes (1:1:1). In 96‐well microplates, serial dilutions of nano‐short peptides were prepared using the mixed solution, followed by addition of an equal volume of bacterial suspension. Following incubation at 37 °C for 1.5 h, the absorbance at 492 nm was measured using a microplate reader, with untreated bacterial suspensions serving as controls.

[10] = system: S. aureus ATCC 29213; assay: Intracellular ATP determination; format: cell-based, Staphylococcus aureus; conditions: 16 × 10^−6 M, S. aureus ATCC 29213, 1 h, 37 °C; n = 3
Procedure: The intracellular ATP levels of E. coli ATCC 25922 and S. aureus ATCC 29213 after nano‐short peptides treatment were detected using an Enhanced ATP Assay Kit.^[ [59] ^] Logarithmic growth stage E. coli ATCC 25922 and S. aureus ATCC 29213 bacterial solutions were diluted to OD600 = 0.4 in MHB liquid medium. Then, the bacterial dilutions were co‐incubated with different concentrations of nano‐short peptides at 37 °C for 1 h. After incubation, the bacterial dilutions were centrifuged (12 000 rpm, 5 min, 4 °C) to pellet the cells. The resulting bacterial pellets were processed according to the steps in the kit. Finally, the chemiluminescence was detected by a microplate reader.

[11] = system: S. aureus ATCC 29213; assay: Respiratory chain dehydrogenase activity, RT reduction; format: cell-based, Staphylococcus aureus; conditions: 16 × 10^−6 M, S. aureus ATCC 29213, 1.5 h, 37 °C; n = 3
Procedure: as §3

[12] = system: S. aureus 29213; format: cell-based, Staphylococcus aureus
Procedure: as §1

[13] = system: S. aureus 25923; format: cell-based, Staphylococcus aureus
Procedure: as §1

[14] = system: E. coli ATCC 25922; assay: ROS generation, DCFH-DA; format: cell-based, Escherichia coli; conditions: 16 × 10^−6 M, E. coli ATCC 25922, DCFH-DA, 1 h; n = 3
Procedure: as §2

| SMILES | MIC, E. faecalis 29212 [1] | MIC, P. aeruginosa 27853 [2] | MIC, P. aeruginosa PAO1 [3] | MIC, MRSA 43300 [4] | cell wall permeabilization, ciprofloxacin as the reference ([5]; 8 × 10^−6 M) | cell wall permeabilization, ciprofloxacin as the reference ([5]; 16 × 10^−6 M) | increase of ROS content vs untreated bacteria [6] | antimicrobial capacity after serum incubation [7] | MIC, S. epidermidis 12228 [8] | RCD activity reduced to [9] | ATP levels decreased to [10] | RCD activity reduced to [11] | MIC, S. aureus 29213 [12] | MIC, S. aureus 25923 [13] | increase of ROS content vs untreated bacteria [14] |
| --- | --- | --- | --- | --- | --- | --- | --- | --- | --- | --- | --- | --- | --- | --- | --- |
| N=C(N)NCCC[C@H](NC(=O)[C@@H](CCCNC(=N)N)NC(=O)[C@H](Cc1cccc2ccccc12)NC(=O)[C@H](Cc1cccc2ccccc12)NC(=O)[C@H](Cc1cccc2ccccc12)NC(=O)[C@@H](N)Cc1cccc2ccccc12)C(=O)N[C@@H](CCCNC(=N)N)C(=O)N1CCC[C@H]1C(=O)O (stereo in doubt) [Peptide N4] | 4 µM (≈ 5.49 µg/mL) | 8 µM (≈ 11 µg/mL) | 4 µM (≈ 5.49 µg/mL) | 4 µM (≈ 5.49 µg/mL) | 48.48% | 110.54% | 1.83 fold | retained their original antimicrobial capacity | 4 µM (≈ 5.49 µg/mL) | 60.10% | 10.8% | 18.84% | 4 µM (≈ 5.49 µg/mL) | 4 µM (≈ 5.49 µg/mL) | 2.26 fold |
| CCCCCC(N)C(=O)NC(CCCCC)C(=O)NC(CCCCC)C(=O)NC(CCCCC)C(=O)N[C@H](CCCNC(=N)N)C(=O)N[C@@H](CCCNC(=N)N)C(=O)N[C@@H](CCCNC(=N)N)C(=O)N1CCC[C@H]1C(=O)O (stereo partly drawn) [Peptide B4] (H-[ξAhp(2)][ξAhp(2)][ξAhp(2)][ξAhp(2)][dR]RRP-OH; N-terminus assumed) | 32 µM (≈ 35 µg/mL) | 16 µM (≈ 17.5 µg/mL) | 256 µM (≈ 280 µg/mL) | 16 µM (≈ 17.5 µg/mL) | 19.49% | 37.80% | 1.38 fold | retained their original antimicrobial capacity | 32 µM (≈ 35 µg/mL) | 70.75% | 71.18% | 34.12% | 16 µM (≈ 17.5 µg/mL) | 32 µM (≈ 35 µg/mL) | 1.51 fold |

From PMC12677699, “Utilizing Proteolytic‐Resistant Nano‐Short Peptide Based on Naphthyl Tail‐Anchored to Combat Bacterial Infections” (Advanced Science, 2025)
